For 63 compounds, cytotoxicity results are on record in ChEMBL document CHEMBL3507680, “University of Dundee, Gates Library screen for HepG2 cell viability”.

A short description of this data set: Human HepG2 cell viability assay in 384 well format. The class given is toxicity, cell-based. Details: dose 125 nL, time 70.5 hour; cytotoxicity at 70.5 h: concentration not given beside the values. The following applies: HepG2 cells, read-out: Inhibition.

Consider `CN(Cc1cccnc1)Cc1cn2c(n1)CN(C1CCOCC1)CC2`, for which the cytotoxicity at 70.5 h was -4.27%.

For the compound `COC(=O)CCC(=O)N1CCC2(CN(Cc3ccc(Cl)cc3)C2)C1`, the cytotoxicity at 70.5 h was -6.67%.

Consider `Cc1ccoc1C(=O)N1CCO[C@H]2[C@H](OCc3ccncc3)CC[C@@H]21`, for which the cytotoxicity at 70.5 h was -0.105%.

Take `Cn1cc(CN2C[C@@H]3COC[C@]3(C(=O)NCc3cccs3)C2)cn1`: the cytotoxicity at 70.5 h was -6.51%.

Turning to `CN(C)C(=O)[C@@H]1C[C@@H]2CCN(C3CCOCC3)C[C@@H]2O1`, the cytotoxicity at 70.5 h was 12.2%.

As to `CC(C)Oc1ncnc2c1CCN(c1cc(C(F)(F)F)ncn1)CC2`, the cytotoxicity at 70.5 h came out at 4.68%.

`CC(C)Nc1ncnc2c1CCN(c1cc(C(F)(F)F)ncn1)CC2`: the cytotoxicity at 70.5 h stood at 3.48%.

As for `CCOc1ncnc2c1CCN(c1cc(C(F)(F)F)ncn1)CC2`, the cytotoxicity at 70.5 h amounted to 3.85%.

For `Cn1cc(CN2CCCn3cnc(COCc4ccco4)c3C2)cn1`, the cytotoxicity at 70.5 h is 3.06%.

Regarding `CN(C)C(=O)[C@H]1C[C@@H]2CN(c3ncccn3)C[C@H]1O2`, the cytotoxicity at 70.5 h is -4.11%.

With `Cc1noc([C@]23COC[C@H]2CN(C(=O)C2CCOCC2)C3)n1`, the cytotoxicity at 70.5 h was -4.92%.

As for `Cc1noc([C@@]23CCO[C@@H]2CCN(C(=O)c2cc(C)[nH]c2C)C3)n1`, the cytotoxicity at 70.5 h is -2.6%.

For `CCC1=N[C@@]2(CC[C@@H]3CN(C(=O)NCC(C)C)C[C@@H]32)C(=O)N1CCOC`, the cytotoxicity at 70.5 h is -2.9%.

As for `O=C1NC(c2ccccc2)=N[C@@]12CC[C@@H]1CN(Cc3nccs3)C[C@@H]12`, the cytotoxicity at 70.5 h was -4.6%.

`O=C1NC(c2ccccc2)=N[C@@]12CC[C@@H]1CN(Cc3cccnc3)C[C@@H]12`: the cytotoxicity at 70.5 h is -0.723%.

Turning to `Cc1noc([C@@]23CCO[C@@H]2CCN(C(=O)C2CCOCC2)C3)n1`, the cytotoxicity at 70.5 h was 4.56%.

In the case of `CC(=O)N1CC[C@H]2OCC[C@@]2(C(=O)NCc2ccco2)C1`, the cytotoxicity at 70.5 h worked out at 1.98%.

On to `CS(=O)(=O)NC[C@@H]1OC[C@H]2CN(C(=O)c3ccc[nH]3)CC[C@H]21`, for which the cytotoxicity at 70.5 h was found to be 3.6%.

As for `Cn1cc(N2CCC3(CCN(S(=O)(=O)C4CC4)C3)C2=O)cn1` (stereo not drawn), the cytotoxicity at 70.5 h turned out to be 4.38%.

`O=C1CC2(CCN(S(=O)(=O)C3CC3)C2)CN1c1cncnc1` (stereo not drawn): the cytotoxicity at 70.5 h was 4.54%.

Take `CN1CCN(C(=O)[C@@H]2CCO[C@@H]3CCN(c4ncccn4)C[C@@H]32)CC1`: the cytotoxicity at 70.5 h was -3.98%.

For `Cc1noc([C@@]23CCO[C@@H]2CCN(C(=O)c2sccc2C)C3)n1`, the cytotoxicity at 70.5 h is -1.6%.

As for `Cc1cccc(CN2C[C@@H]3CCCO[C@@H]3[C@H](NS(C)(=O)=O)C2)n1`, the cytotoxicity at 70.5 h is -3.48%.

Consider `Cn1cc(N2CC3(CCN(S(=O)(=O)C4CC4)C3)CC2=O)cn1` (stereo not drawn), for which the cytotoxicity at 70.5 h was -1.83%.

As to `Cc1ccc(NCc2cncc3c2CCN(C(=O)C2CC=CC2)C3)nn1`, the cytotoxicity at 70.5 h was -1.58%.

Turning to `CC(C)CCN1C[C@@H]2OCCN(c3ncc(F)cn3)[C@@H]2C1`, the cytotoxicity at 70.5 h is -4.42%.

For the compound `Cc1ccc(CN2CCc3ncnc(-c4ccoc4)c3CC2)o1`, the cytotoxicity at 70.5 h was 2.47%.

Take `CS(=O)(=O)NC[C@H]1OC[C@H]2CN(Cc3ccsc3)CC[C@H]21`: the cytotoxicity at 70.5 h stood at 2.09%.

For the compound `Cn1cc(CN2CCn3cnc(COCC4CC4)c3C2)cn1`, the cytotoxicity at 70.5 h was determined as 14.1%.

As for `Cc1nc(COCc2cnc3n2CCN(C)C3C)cs1` (stereo not drawn), the cytotoxicity at 70.5 h is -1.73%.

On to `CO[C@@H]1CCN(S(=O)(=O)c2cn(C)cn2)[C@H]1Cc1cnn(C)c1`, for which the cytotoxicity at 70.5 h is -0.546%.

As to `Cc1noc(C)c1CN1CC[C@@H]2O[C@H](COCC3CC3)CC[C@@H]21`, the cytotoxicity at 70.5 h was -4.64%.

As to `CCOC[C@H]1CC[C@H]2[C@H](CCN2Cc2c(C)noc2C)O1`, the cytotoxicity at 70.5 h was -3.26%.

With `Cc1ccc(CN2CCCn3cnc(COCC4CC4)c3C2)o1`, the cytotoxicity at 70.5 h is -1.19%.

On to `CO[C@H]1CCN(S(=O)(=O)c2cn(C)cn2)[C@H]1Cc1ccccc1`, for which the cytotoxicity at 70.5 h was 0.174%.

For `Cc1noc(C)c1CN1CC[C@@H]2O[C@H](COCC(C)C)CC[C@@H]21`, the cytotoxicity at 70.5 h is -3.29%.

As for `O=C(c1cnccn1)N1CCN2C[C@H](Oc3cccc(F)c3)C[C@H]2C1`, the cytotoxicity at 70.5 h was -2.2%.

As for `CCO[C@H]1CCN(S(=O)(=O)c2cn(C)cn2)[C@H]1Cc1ccccc1`, the cytotoxicity at 70.5 h was -1.16%.

Turning to `CC(C)NC(=O)[C@@H]1CCO[C@@H]2CCN(c3ncccn3)C[C@@H]21`, the cytotoxicity at 70.5 h was determined as 0.956%.

For `Cc1nnc(N2CC[C@@H](OCC3CC3)[C@@H](Cc3ccccc3)C2)s1`, the cytotoxicity at 70.5 h was -7.86%.

In the case of `CC(C)Oc1ncnc2c1CCN(Cc1ccoc1)CC2`, the cytotoxicity at 70.5 h is -0.464%.

`Cc1cnc(N2C[C@@H]3CN(Cc4ccco4)CCC[C@]3(C(=O)O)C2)nc1`: the cytotoxicity at 70.5 h was -5.9%.

In the case of `O=C([C@H]1CN(Cc2ccoc2)C[C@H]2OCC[C@@H]12)N1CCCCO1`, the cytotoxicity at 70.5 h is -4.73%.

As to `O=S(=O)(Cc1ccccc1)N1CCCn2cnc(CN3CCCC3)c2C1`, the cytotoxicity at 70.5 h came to 0.898%.

For the compound `O=C(N[C@@H]1CN(c2ncccn2)C[C@@H]2CCCO[C@@H]21)c1cnccn1`, the cytotoxicity at 70.5 h is 2.24%.

Consider `Cc1noc(C)c1CN1CC[C@@H]2O[C@@H](COCC(C)C)CC[C@@H]21`, for which the cytotoxicity at 70.5 h worked out at 3.11%.

For the compound `COc1ccc(CN2C[C@@H]3CCCO[C@@H]3[C@H](NS(C)(=O)=O)C2)cc1`, the cytotoxicity at 70.5 h is -9.16%.

For the compound `CC[C@@H]1N(Cc2ccncc2)CCC[C@]12CCC(=O)N2CCOC`, the cytotoxicity at 70.5 h is -4.38%.

For the compound `c1cc(CN2CC[C@@H]3[C@@H](CO[C@H]3CN3CCOCC3)C2)cs1`, the cytotoxicity at 70.5 h was -1.87%.

Turning to `Cc1ccc(CN2CCc3ncnc(-c4ccncc4)c3CC2)o1`, the cytotoxicity at 70.5 h is -7.23%.

Take `Cc1cccc(N2CCc3ncc(CNc4ccccn4)n3CC2)n1`: the cytotoxicity at 70.5 h is -3.22%.

Regarding `Cn1cnc2c1C(COCC1CC1)CN(c1ncccn1)C2` (stereo not drawn), the cytotoxicity at 70.5 h is 2.85%.

For the compound `O=C(NCc1ccccn1)[C@]12COC[C@H]1CN(Cc1ccsc1)C2`, the cytotoxicity at 70.5 h is -0.962%.

For `CC1c2ncc(Cn3cccn3)n2CCN1Cc1cccnc1` (stereo not drawn), the cytotoxicity at 70.5 h was -1.36%.

On to `Cc1cncc(C(=O)N2CCO[C@H]3[C@H](OCCN(C)C)CC[C@@H]32)c1`, for which the cytotoxicity at 70.5 h was -12.9%.

As to `COCCN1C[C@@H](C)[C@@]2(COCCN(C(=O)c3cccc(C)n3)C2)C1`, the cytotoxicity at 70.5 h stood at 0.709%.

As to `O=C(c1ccc(F)cc1)N1CCN2C[C@H](Oc3cccnc3)C[C@H]2C1`, the cytotoxicity at 70.5 h came out at 0.416%.

As to `COCCN1C[C@@H](C)[C@@]2(COCCN(C(=O)c3ccncc3)C2)C1`, the cytotoxicity at 70.5 h was -3.32%.

In the case of `COCCN1C[C@@H](C)[C@@]2(COCCN(C(=O)c3ccccn3)C2)C1`, the cytotoxicity at 70.5 h is -4.02%.

For the compound `Cn1cnc2c1C(COCc1ccccc1)N(Cc1ccccn1)CC2` (stereo not drawn), the cytotoxicity at 70.5 h is -0.00457%.

Consider `CC1c2ncc(CN3CCN(C)CC3)n2CCN1Cc1ccc(F)cc1` (stereo not drawn), for which the cytotoxicity at 70.5 h is -2.82%.

As to `CN(C)[C@@H]1CCN(S(=O)(=O)c2cn(C)cn2)[C@H]1Cc1cccnc1`, the cytotoxicity at 70.5 h is -2.89%.

On to `CC1c2ncc(CN3CCN(C)CC3)n2CCN1Cc1ccccn1` (stereo not drawn), for which the cytotoxicity at 70.5 h was -0.798%.
